This data set can be described thus: Solubility of the drugs in aqueous media. It counts as physicochemical.

Structures are written as SMILES. ≈ marks a conversion by molar mass, not a printed value. Where two headings read alike, the source gives them in different places.

As to `CCc1cc(Oc2cccc(N(Cc3cccc(OC(F)(F)C(F)F)c3)C[C@@H](O)C(F)(F)F)c2)ccc1Cl` [Drug 1, (2R)-3-[[3-(4-chloro-3-ethylphenoxy)phenyl][[3-(1,1,2,2-tetrafluoroethoxy)phenyl]methyl]amino]-1,1,1-trifluoro-2-propanol], the solubility (usually the concentration that dissolves in the medium under given conditions) (phosphate buffered saline, aqueous buffer, PBS, pH 6.5, read-out: solubility in phosphate buffered saline at pH 6.5 (PBS)) is below 0.1 µg/mL.
With `CC[C@@H]1C[C@H](N(Cc2cc(C(F)(F)F)cc(C(F)(F)F)c2)C(C)=O)c2cc(C(F)(F)F)ccc2N1C(=O)OC(C)C` [Drug 2, [2R,4S]4-[acetyl-(3,5-bis-trifluoromethyl-benzyl)-amino]-2-ethyl-6-trifluoromethyl-3,4-dihydro-2H-quinoline-1-carboxylic acid isopropyl ester], where the note is “model fasted duodenal (MFD) solution, fassgf or other biorelevant, MFD solution, read-out: solubility in model fasted duodenal (MFD) solution”, the solubility is around 11 µg/mL (≈ 18.4 µM).
As for `CCOC(=O)N1c2ccc(C(F)(F)F)cc2[C@@H](N(Cc2cc(C(F)(F)F)cc(C(F)(F)F)c2)C(=O)OC)C[C@H]1CC` [Drug 3, [2R,4S]4-[(3,5-bis-trifluoromethyl-benzyl)-methoxycarbonyl-amino]-2-ethyl-6-trifluoromethyl-3,4-dihydro-2H-quinoline-1-carboxylic acid ethyl ester, reference compound], the solubility (water, read-out: solubility in water) was below 0.1 µg/mL.
